Laboratory results reported in patent US7579324B2, “Conjugates of biologically active compounds, methods for their preparation and use, formulation and pharmaceutical applications thereof” (c-a-i-r biosciences GmbH, priority 2002, dated 2009).

Tested on: HeLa or JURKAT cells
Test: Cytotoxicity assay (Alamar Blue) with guanosine rescue
Assay type: cell-based
Experimental: HeLa cells (DSMZ, ACC 57) and Jurkat cells (DSMZ, ACC 282) in exponential growth phase are exposed for 3 days to test compounds. The number of surviving cells is then determined by the Alamar Blue assay (Serotec Inc.). This assay incorporates a fluorometric growth indicator based on detection of metabolic activity. Specifically, the system incorporates an oxidation-reduction indicator that fluoresces in response to chemical reduction of the growth medium resulting from cell growth. As cells grow in culture, innate metabolic activity results in a chemical reduction of the immediate surrounding environment. Continued growth maintains a reduced environment while inhibition of growth maintains an oxidized environment. […] Fluorescence is monitored at 560 nm (Exc.) and 590 nm Em.
HeLa cells (1×10^3) or JURKAT cells (1×10^3) are plated in 100 μl MEM medium (with Earle's salt; Biochrom KG) containing 10% FBS, 2 mM L-glutamine, and non-essential animo acids in 96-well plates and incubated at 37° C. and 5% CO2 atmosphere. […] The fluorescence is then measured as described above and the LD50 is determined based on a sigmoidal dose response regression. […] Any toxicity still detected can then be ascribed either to other biological effects of the of T—L—C conjugate of mycophenolic acid, or is due to the very high intracellular concentration of mycophenolic acid, following concentrative uptake into the cell.

## COc1c(C)c2c(c(O)c1C/C=C(\C)CCC(=O)O)C(=O)OC2 [Mycophenolic acid]
50 μM guanosine in culture medium
  effect in the presence of guanosine: completely removed
Normal culture conditions, HeLa or JURKAT
  IC50: < 2 µM
